Experimental findings from ChEMBL document CHEMBL5034023, “Development of Multifunctional and Orally Active Cyclic Peptide Agonists of Opioid/Neuropeptide FF Receptors that Produce Potent, Long-Lasting, and Peripherally Restricted Antinociception with Diminished Side Effects” (J Med Chem, 2021) are described below.

For data set [1], the system named is Mus musculus. In words: Potency index, ratio of test compound ED50 to DN-9 ED50 for antinociceptive activity against Kunming mouse model of thermal-induced nociception assessed as peripheral analgesia administered subcutaneously by tail-flick test. The data set is classed as functional. On the technique in general: Thermal pain tests record how soon the animal reacts.

The target of another data set is Mu-type opioid receptor (Homo sapiens, UniProt P35372).
Data set [2] concerns Mus musculus. Description: Antinociceptive activity against Kunming mouse model of thermal-induced nociception assessed as peripheral analgesia administered subcutaneously by tail-flick test. Conditions: sc. Type of data set: functional.
Data set [3] has as its target T1, Neuropeptide FF receptor 2 (Homo sapiens, UniProt Q9Y5X5). In words: Agonist activity at NPFF2R (unknown origin) expressed in HEK293-A cells assessed as inhibition of forskolin-induced cAMP accumulation by measuring maximal efficacy preincubated for 30 mins in presence of 3-isobutyl-1-methylxanthine followed by forskolin and compound addition by competitive PKA binding assay relative to control. The data set is classed as functional, cell-based. Conditions: filed as agonist.

Data set [4] concerns the target T2, Neuropeptide FF receptor 1 (Homo sapiens, UniProt Q9GZQ6). Description: Agonist activity at NPFF1R (unknown origin) expressed in HEK293-A cells assessed as inhibition of forskolin-induced cAMP accumulation preincubated for 30 mins in presence of 3-isobutyl-1-methylxanthine followed by forskolin and compound addition by competitive PKA binding assay. Type of data set: functional, cell-based. A general note: Cyclic AMP is a second messenger, typically raised through Gs and lowered through Gi signalling.

Data set [5] has as its system Mus musculus. Description: Antinociceptive activity against Kunming mouse model of thermal-induced nociception assessed as duration of analgesic effect administered subcutaneously by tail-flick test. Type of data set: functional.
In data set [6] the test system is Mus musculus. In words: Antinociceptive activity against Kunming mouse model of thermal-induced nociception assessed as maximum possible effect at 89 nmol/kg, po measured after 30 min by tail flick test relative to control. Conditions: 0.5 h. The data set is classed as functional.
Data set [7] is described as follows: Metabolic stability in mouse plasma assessed as degradation half life at 0.01 M measured up to 360 mins. Type of data set: ADME, cell-free.
The target in data set [8] is T1, Neuropeptide FF receptor 2. Description: Agonist activity at NPFF2R (unknown origin) expressed in HEK293-A cells assessed as inhibition of forskolin-induced cAMP accumulation preincubated for 30 mins in presence of 3-isobutyl-1-methylxanthine followed by forskolin and compound addition by competitive PKA binding assay. The data set is classed as functional, cell-based. Conditions: for pEC50: read-out: EC50.

In data set [9] the target is T3, Delta-type opioid receptor (Homo sapiens, UniProt P41143). In words: Agonist activity at DOR (unknown origin) expressed in HEK293-A cells assessed as inhibition of forskolin-induced cAMP accumulation preincubated for 30 mins in presence of 3-isobutyl-1-methylxanthine followed by forskolin and compound addition by competitive PKA binding assay. Type of data set: functional, cell-based.

The test system of data set [10] is Mus musculus. In words: Antinociceptive activity against Kunming mouse model of thermal-induced nociception assessed as maximum possible effect at 89 nmol/kg, po measured after 60 min by tail flick test relative to control. The note with it: 1 h. Type of data set: functional.
In data set [11] the target is Kappa-type opioid receptor (Homo sapiens, UniProt P41145). The data set is classed as functional, cell-based, HEK293-A.
Data set [12] has as its system Mus musculus. Description: Antinociceptive activity in Kunming mouse assessed as analgesic tolerance administered subcutaneously once daily for 8 days by tail flick test. Type of data set: functional, organism-based. The note with it: time 8.0 day.
The target of data set [13] is T3, Delta-type opioid receptor. Description: Agonist activity at DOR (unknown origin) expressed in HEK293-A cells assessed as inhibition of forskolin-induced cAMP accumulation preincubated for 30 mins in presence of 3-isobutyl-1-methylxanthine followed by forskolin and compound addition by competitive PKA binding assay relative to control. The data set is classed as functional, cell-based.

Data set [14] deals with Mus musculus. Description: Antinociceptive activity against Kunming mouse model of thermal-induced nociception assessed as maximum possible effect at 89 nmol/kg, po measured after 20 min by tail flick test relative to control. The data set is classed as functional.
Data set [15] concerns the target T2, Neuropeptide FF receptor 1. In words: Agonist activity at NPFF1R (unknown origin) expressed in HEK293-A cells assessed as inhibition of forskolin-induced cAMP accumulation by measuring maximal efficacy preincubated for 30 mins in presence of 3-isobutyl-1-methylxanthine followed by forskolin and compound addition by competitive PKA binding assay relative to control. The data set is classed as functional, cell-based. The note with it: filed as agonist.

Data set [16] has as its system Mus musculus. Description: Antinociceptive activity against Kunming mouse model of thermal-induced nociception assessed as maximum possible effect at 90.1 nmol/kg, po measured after 60 min by tail flick test relative to control. The data set is classed as functional. Conditions: 1 h.
In data set [17] the test system is Mus musculus. In words: Antinociceptive activity against Kunming mouse model of thermal-induced nociception assessed as maximum possible effect at 90.1 nmol/kg, po measured after 20 min by tail flick test relative to control. The data set is classed as functional.
For data set [18], the system named is Mus musculus. In words: Antinociceptive activity against Kunming mouse model of thermal-induced nociception assessed as maximum possible effect at 90.1 nmol/kg, po measured after 30 min by tail flick test relative to control. The note with it: 0.5 h. Type of data set: functional.

SMILES strings stand for the structures. pEC50: −log10 of the molar value. The source made the active and inactive calls. Bridge positions count the residues as written; N and C are the ends. Square brackets hold non-standard residues; d marks the D form. Peptide text beside a SMILES is read from it. NMeF = CN[C@@H](Cc1ccccc1)C(=O)O; dDab = NCC[C@@H](N)C(=O)O; dDap = NC[C@@H](N)C(=O)O

T2 sequence (Q9GZQ6 whole entry): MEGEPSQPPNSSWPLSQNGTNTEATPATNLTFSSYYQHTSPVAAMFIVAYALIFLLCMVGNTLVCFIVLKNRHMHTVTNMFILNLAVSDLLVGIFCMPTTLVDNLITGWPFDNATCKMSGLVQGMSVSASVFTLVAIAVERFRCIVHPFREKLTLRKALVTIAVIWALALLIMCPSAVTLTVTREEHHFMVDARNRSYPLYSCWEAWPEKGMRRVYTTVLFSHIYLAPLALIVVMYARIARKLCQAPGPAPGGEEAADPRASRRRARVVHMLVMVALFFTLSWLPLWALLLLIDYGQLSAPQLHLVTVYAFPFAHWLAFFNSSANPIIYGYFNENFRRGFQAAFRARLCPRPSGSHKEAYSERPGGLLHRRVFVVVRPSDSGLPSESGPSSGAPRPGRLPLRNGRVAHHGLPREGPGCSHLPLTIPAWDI
T1 sequence (Q9Y5X5 whole entry): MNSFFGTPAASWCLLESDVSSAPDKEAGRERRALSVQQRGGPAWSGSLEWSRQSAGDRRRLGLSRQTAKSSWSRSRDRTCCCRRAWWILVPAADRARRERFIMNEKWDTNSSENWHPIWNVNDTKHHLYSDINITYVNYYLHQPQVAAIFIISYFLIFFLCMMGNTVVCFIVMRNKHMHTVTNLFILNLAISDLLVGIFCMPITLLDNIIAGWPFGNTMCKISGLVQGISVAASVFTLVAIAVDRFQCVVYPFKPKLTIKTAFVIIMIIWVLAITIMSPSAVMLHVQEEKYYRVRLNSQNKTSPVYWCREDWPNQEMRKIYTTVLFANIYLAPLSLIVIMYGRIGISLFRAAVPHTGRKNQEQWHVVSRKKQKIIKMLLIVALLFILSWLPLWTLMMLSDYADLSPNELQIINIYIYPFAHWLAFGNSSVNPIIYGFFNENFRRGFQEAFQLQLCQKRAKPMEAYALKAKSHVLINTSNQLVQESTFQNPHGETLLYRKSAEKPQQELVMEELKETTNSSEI
T3 sequence (P41143 whole entry): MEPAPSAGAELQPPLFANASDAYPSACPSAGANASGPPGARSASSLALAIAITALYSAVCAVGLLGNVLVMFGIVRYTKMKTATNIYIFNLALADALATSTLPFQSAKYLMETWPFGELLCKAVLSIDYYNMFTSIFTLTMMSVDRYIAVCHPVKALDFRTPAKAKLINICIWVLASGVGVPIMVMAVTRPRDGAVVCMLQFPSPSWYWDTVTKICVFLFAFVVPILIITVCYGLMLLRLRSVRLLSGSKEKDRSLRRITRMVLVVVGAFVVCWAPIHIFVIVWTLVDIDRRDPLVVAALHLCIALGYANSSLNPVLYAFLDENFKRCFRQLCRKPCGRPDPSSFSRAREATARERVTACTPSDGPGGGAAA
Sequence of Kappa-type opioid receptor (P41145 whole entry): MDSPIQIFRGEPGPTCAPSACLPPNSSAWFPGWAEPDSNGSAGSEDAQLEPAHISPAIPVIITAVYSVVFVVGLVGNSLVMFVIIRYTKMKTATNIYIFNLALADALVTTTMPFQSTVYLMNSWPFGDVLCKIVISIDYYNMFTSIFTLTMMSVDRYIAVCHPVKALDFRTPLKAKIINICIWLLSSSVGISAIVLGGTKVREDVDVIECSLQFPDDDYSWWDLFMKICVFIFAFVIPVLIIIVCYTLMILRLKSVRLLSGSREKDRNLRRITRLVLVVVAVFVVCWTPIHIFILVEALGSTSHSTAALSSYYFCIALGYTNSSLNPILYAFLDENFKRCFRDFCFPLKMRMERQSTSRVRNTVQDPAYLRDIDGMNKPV
Sequence of Mu-type opioid receptor (P35372 whole entry): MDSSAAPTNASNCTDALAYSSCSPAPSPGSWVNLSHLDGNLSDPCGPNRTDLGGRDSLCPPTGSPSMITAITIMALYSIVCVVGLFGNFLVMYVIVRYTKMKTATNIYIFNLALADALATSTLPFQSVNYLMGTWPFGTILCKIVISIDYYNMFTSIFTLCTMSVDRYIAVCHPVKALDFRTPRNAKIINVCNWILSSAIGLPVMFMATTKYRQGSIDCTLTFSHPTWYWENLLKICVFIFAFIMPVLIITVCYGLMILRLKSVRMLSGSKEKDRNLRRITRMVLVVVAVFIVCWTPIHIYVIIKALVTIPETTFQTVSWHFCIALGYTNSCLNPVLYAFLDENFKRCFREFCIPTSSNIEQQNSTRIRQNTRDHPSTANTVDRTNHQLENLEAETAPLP

As a reminder, the pEC50 is the negative decadic logarithm of the EC50, by convention in mol/L. What is called ED50 is the dose at which the effect has come halfway, by size or by number of responders. Broadly, the Emax is the maximal effect, on the per cent scale that the assay sets. By half-life is commonly meant the time needed for the level to fall by half in the phase considered. `CN1C(=O)CNC(=O)[C@H](NC(=O)[C@@H](N)Cc2ccc(O)cc2)CCNC(=O)C[C@@H](C(=O)N2CCC[C@H]2C(=O)N[C@@H](CCC(N)=O)C(=O)N[C@@H](CCCNC(=N)N)C(=O)N[C@@H](Cc2ccccc2)C(N)=O)NC(=O)[C@@H]1Cc1ccccc1` (H-Y[dDab]G[NMeF]DPQRF-NH2; lactam 2-5): the “Ratio ED50” value in the data set with Mus musculus [1] is 15.2. In addition, the pEC50 is 7.42 at Mu-type opioid receptor; 6.74 in data set [4]; 6.58 in [8]; 7.02 in data set [9]; 7.15 in [11]. The ED50 in the data set with Mus musculus [2] is 0.0142 µmol/kg. The figures for the Emax in [3], in data set [13] and in data set [15] were 63.2%, 31.2% and 73.4%, respectively. Moreover, in the data set with Mus musculus [5], the Tlast came out at 240 min. For the same molecule, the MPE was found to be 93.8% in the data set with Mus musculus [6], 74% in the data set with Mus musculus [10] and 80.8% in the data set with Mus musculus [14]. Besides, the half-life at 10000 µM in data set [7] is 8.83 h. For the same molecule, the outcome in the data set with Mus musculus [12] was inactive.

For `CN1C(=O)CNC(=O)[C@H](NC(=O)[C@@H](N)Cc2ccc(O)cc2)CNC(=O)C[C@@H](C(=O)N2CCC[C@H]2C(=O)N[C@@H](CCC(N)=O)C(=O)N[C@@H](CCCNC(=N)N)C(=O)N[C@@H](Cc2ccccc2)C(N)=O)NC(=O)[C@@H]1Cc1ccccc1` (H-Y[dDap]G[NMeF]DPQRF-NH2; lactam 2-5), the “Ratio ED50” value in the data set on Mus musculus [1] is reported as 16. Further, the pEC50 on Mu-type opioid receptor was 6.62; in data set [4] it was 7.05; in [8], 6.46; in [9], 6.43; in data set [11] it was 6.87. Also, the ED50 in the data set with Mus musculus [2] turned out to be 0.0135 µmol/kg. Further, the Emax came out at 63.9% in data set [3], 48% in [13] (filed as agonist) and 47.5% in data set [15]. Also, the results for the MPE in the data set with Mus musculus [16], with Mus musculus [17] and in the data set on Mus musculus [18] were 80.8%, 93.2% and 97.5%, respectively. The Tlast in the data set with Mus musculus [5] is on record as 240 min. The half-life at 10000 µM in data set [7] turned out to be 1.09 h. Moreover, the EC50 in data set [8] (read-out: pEC50 (converted)) was 355 nM. In addition, in the data set with Mus musculus [12], the result was inactive.
